Test results taken from article PMC7104723 (Cell Research, 2020).
pIC50: −log10 of the molar value. “And” between values parts separate entries of the source, which are not always exact repeats. Equal entries are not always repeated. Non-standard residues stand in square brackets, D forms with d. Residues, ends and D or L forms follow the SMILES beside them. *: point of attachment. X1 = CC(C)CCC[C@@H](C)[C@H]1CC[C@H]2[C@@H]3CC=C4C[C@@H](OC(=O)C*)CC[C@]4(C)[C@H]3CC[C@]12C; PEG4 = NCCOCCOCCOCCOCCC(=O)O

What was measured:
SARS-CoV-2 S protein = SARS-CoV-2 S protein (Severe acute respiratory syndrome coronavirus 2, UniProt P0DTC2); test: cell-based; format: cell-based
SARS-CoV-2 PsV = details: PsV, 72 h
SARS-CoV S protein = SARS-CoV S protein (Severe acute respiratory syndrome coronavirus, UniProt P59594); test: cell-based; format: cell-based
MERS-CoV PsV = details: 72 h
HCoV-229E PsV = details: 72 h
HCoV-NL63 PsV = details: 72 h
HCoV-229E S protein = HCoV-229E S protein (Human coronavirus 229E, UniProt P15423); test: cell-based; format: cell-based
HCoV-OC43 S protein = HCoV-OC43 S protein (Human coronavirus OC43, UniProt P36334); test: cell-based; format: cell-based
Chain of HCoV-OC43 S protein (P36334 14-1353 limits assumed): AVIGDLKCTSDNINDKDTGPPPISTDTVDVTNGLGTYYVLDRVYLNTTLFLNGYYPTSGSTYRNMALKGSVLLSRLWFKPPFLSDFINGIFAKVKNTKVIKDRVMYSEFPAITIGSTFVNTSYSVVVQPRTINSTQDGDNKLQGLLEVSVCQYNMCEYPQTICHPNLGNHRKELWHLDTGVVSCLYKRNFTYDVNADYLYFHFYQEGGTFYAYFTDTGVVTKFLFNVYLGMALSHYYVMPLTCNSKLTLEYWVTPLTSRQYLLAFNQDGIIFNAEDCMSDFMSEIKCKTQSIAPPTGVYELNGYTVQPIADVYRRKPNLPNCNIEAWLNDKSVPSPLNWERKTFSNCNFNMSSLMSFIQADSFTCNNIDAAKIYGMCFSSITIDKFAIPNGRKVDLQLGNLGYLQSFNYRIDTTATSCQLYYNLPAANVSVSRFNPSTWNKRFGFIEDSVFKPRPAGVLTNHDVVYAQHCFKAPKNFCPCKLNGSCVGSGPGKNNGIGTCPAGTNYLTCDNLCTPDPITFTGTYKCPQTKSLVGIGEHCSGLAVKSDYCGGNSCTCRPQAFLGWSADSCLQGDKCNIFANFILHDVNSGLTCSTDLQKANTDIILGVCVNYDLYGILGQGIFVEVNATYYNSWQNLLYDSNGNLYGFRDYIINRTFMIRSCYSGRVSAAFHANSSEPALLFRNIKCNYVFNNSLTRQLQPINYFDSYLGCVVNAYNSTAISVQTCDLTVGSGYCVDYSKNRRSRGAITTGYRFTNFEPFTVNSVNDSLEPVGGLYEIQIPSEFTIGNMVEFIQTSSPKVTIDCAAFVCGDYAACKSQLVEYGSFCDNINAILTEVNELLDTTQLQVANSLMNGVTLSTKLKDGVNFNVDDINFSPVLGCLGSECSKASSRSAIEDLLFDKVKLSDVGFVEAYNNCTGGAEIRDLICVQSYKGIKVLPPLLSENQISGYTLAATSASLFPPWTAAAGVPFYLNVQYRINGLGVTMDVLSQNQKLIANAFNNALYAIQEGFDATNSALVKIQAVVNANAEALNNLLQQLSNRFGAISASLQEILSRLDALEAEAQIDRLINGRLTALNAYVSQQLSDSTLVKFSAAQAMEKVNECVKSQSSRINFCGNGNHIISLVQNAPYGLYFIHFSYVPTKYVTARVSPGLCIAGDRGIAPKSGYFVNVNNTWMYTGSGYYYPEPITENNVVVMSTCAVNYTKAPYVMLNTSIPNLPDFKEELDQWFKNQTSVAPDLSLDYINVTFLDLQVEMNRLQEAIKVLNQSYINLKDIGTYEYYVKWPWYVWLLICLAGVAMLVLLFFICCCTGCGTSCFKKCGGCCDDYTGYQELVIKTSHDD

live HCoV-OC43 = details: 1 h
live SARS-CoV-2 = details: live, 72 h
live MERS-CoV = details: 72 h
live HCoV-229E = details: 1 h
WIV1 PsV = details: 72 h
SARS-CoV PsV = details: 72 h
live HCoV-NL63 = details: 1 h
Rs3367 PsV = details: 72 h
MERS-CoV S protein = MERS-CoV S protein (Middle East respiratory syndrome-related coronavirus, UniProt K9N5Q8); test: cell-based; format: cell-based
Chain of MERS-CoV S protein (K9N5Q8 18-1353 limits assumed): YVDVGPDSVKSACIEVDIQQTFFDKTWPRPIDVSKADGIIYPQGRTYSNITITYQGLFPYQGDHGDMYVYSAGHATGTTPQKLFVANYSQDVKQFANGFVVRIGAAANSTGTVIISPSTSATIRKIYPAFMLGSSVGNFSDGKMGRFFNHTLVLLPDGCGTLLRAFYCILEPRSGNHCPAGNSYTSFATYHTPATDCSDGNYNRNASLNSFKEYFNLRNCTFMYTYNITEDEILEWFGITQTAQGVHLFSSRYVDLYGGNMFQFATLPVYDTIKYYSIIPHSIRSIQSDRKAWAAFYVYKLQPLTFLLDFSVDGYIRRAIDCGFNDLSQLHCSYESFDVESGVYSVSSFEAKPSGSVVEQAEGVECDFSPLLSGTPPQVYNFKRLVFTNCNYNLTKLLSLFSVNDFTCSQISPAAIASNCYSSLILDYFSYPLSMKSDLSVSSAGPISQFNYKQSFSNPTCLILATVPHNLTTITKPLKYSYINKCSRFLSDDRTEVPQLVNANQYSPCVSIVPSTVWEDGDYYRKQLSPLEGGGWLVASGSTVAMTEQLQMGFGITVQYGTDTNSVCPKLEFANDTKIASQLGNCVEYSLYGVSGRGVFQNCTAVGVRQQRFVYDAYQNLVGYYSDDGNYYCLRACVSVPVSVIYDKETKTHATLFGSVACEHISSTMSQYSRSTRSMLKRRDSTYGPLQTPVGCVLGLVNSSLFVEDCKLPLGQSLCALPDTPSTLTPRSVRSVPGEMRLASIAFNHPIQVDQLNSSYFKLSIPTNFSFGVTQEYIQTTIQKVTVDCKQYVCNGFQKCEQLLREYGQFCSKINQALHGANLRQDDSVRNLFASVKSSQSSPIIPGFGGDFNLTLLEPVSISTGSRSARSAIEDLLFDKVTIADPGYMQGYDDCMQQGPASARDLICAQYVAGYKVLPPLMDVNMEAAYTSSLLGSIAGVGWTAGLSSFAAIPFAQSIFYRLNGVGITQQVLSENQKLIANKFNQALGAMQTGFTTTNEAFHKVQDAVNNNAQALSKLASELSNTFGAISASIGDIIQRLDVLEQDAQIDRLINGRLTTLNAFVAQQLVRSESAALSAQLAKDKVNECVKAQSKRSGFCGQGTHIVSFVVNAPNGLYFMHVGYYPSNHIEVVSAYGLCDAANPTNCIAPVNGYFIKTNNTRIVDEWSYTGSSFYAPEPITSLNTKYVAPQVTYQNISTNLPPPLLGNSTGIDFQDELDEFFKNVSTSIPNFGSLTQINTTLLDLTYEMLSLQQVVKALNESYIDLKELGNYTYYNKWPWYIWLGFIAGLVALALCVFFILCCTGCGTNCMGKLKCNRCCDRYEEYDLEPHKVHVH

HCoV-NL63 S protein = HCoV-NL63 S protein (Human coronavirus NL63, UniProt Q6Q1S2); test: cell-based; format: cell-based
Chain of HCoV-NL63 S protein (Q6Q1S2 19-1356 limits assumed): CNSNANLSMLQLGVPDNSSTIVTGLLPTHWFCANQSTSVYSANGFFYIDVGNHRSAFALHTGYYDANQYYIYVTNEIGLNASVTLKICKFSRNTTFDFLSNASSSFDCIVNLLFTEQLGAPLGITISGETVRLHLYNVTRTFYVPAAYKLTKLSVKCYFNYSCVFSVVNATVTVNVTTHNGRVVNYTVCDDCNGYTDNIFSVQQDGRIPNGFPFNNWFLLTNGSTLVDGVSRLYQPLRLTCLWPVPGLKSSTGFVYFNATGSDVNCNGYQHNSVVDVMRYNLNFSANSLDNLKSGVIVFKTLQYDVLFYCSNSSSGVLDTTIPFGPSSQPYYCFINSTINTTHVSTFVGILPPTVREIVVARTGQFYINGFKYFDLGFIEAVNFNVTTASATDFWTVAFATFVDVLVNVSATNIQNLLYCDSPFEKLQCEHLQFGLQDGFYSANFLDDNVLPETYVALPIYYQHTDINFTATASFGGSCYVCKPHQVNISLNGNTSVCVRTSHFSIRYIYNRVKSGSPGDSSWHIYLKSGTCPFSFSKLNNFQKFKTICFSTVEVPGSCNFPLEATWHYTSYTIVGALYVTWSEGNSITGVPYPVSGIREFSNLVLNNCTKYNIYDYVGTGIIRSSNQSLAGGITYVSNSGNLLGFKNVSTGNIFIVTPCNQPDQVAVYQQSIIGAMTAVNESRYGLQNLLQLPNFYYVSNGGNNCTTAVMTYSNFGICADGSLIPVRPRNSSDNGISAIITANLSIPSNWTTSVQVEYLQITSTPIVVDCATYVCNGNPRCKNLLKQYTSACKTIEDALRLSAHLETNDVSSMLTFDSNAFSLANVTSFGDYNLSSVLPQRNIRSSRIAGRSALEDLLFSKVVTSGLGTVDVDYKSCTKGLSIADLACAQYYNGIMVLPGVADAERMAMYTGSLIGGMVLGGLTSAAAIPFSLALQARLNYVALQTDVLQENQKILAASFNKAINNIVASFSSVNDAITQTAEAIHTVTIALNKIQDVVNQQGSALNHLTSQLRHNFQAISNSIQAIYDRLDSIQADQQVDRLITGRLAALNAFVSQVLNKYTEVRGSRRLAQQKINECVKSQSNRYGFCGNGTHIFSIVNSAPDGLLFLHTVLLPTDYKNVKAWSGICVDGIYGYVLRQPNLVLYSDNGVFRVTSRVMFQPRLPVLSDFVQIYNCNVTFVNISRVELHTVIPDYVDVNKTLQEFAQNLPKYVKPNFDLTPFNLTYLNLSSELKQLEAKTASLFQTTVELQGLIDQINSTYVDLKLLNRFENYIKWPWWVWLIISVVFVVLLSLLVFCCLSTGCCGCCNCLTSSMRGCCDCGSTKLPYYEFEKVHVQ

HCoV-OC43 PsV = details: 72 h
Rs3367 S protein = format: cell-based, SL-CoV Rs3367
SHC014 S protein = format: cell-based, SL-CoV RsSHC014
WIV1 S protein = format: cell-based, SL-CoV WIV1

## CC[C@H](C)[C@H](NC(=O)[C@H](C)NC(=O)[C@H](CCC(=O)O)NC(=O)[C@H](CCC(=O)O)NC(=O)[C@H](CC(C)C)NC(=O)[C@H](CCCCN)NC(=O)[C@H](CCCCN)NC(=O)[C@H](CCSC)NC(=O)[C@H](CCC(=O)O)NC(=O)[C@H](Cc1ccc(O)cc1)NC(=O)[C@H](CCC(=O)O)NC(=O)[C@H](CC(C)C)NC(=O)[C@H](CC(=O)O)NC(=O)[C@H](CC(C)C)NC(=O)[C@H](Cc1ccccc1)NC(=O)[C@@H](NC(=O)[C@@H](NC(=O)[C@H](CC(N)=O)NC(=O)[C@@H](NC(=O)[C@H](CCC(N)=O)NC(=O)[C@H](CC(=O)O)NC(=O)[C@H](CC(C)C)NC(=O)[C@@H](N)CO)[C@@H](C)CC)C(C)C)[C@@H](C)O)C(=O)N[C@@H](CCCCN)C(=O)N[C@@H](CCCCN)C(=O)N[C@@H](CC(C)C)C(=O)N[C@@H](CCC(=O)O)C(=O)N[C@@H](CCC(=O)O)C(=O)N[C@@H](CO)C(=O)N[C@@H](Cc1ccc(O)cc1)C(=O)N[C@H](C(=O)N[C@@H](CC(=O)O)C(=O)N[C@@H](CC(C)C)C(=O)N[C@@H](CCCCN)C(=O)N[C@@H](CCC(=O)O)C(=O)N[C@@H](CC(C)C)C(=O)NCCOCCOCCOCCOCCC(=O)N[C@@H](CSCC(=O)O[C@H]1CC[C@@]2(C)C(=CC[C@H]3[C@@H]4CC[C@H]([C@H](C)CCCC(C)C)[C@@]4(C)CC[C@@H]32)C1)C(N)=O)[C@@H](C)CC [EK1C] (H-SLDQINVTFLDLEYEMKKLEEAIKKLEESYIDLKEL[PEG4]C(X1)-NH2)
SARS-CoV-2 S protein
  Inhibition of SARS-CoV-2 mediated cell–cell fusion at 2.5 μM: completely inhibit
SARS-CoV-2 PsV
  pIC50: 6.86

## CC[C@H](C)[C@H](NC(=O)[C@H](C)NC(=O)[C@H](CCC(=O)O)NC(=O)[C@H](CCC(=O)O)NC(=O)[C@H](CC(C)C)NC(=O)[C@H](CCCCN)NC(=O)[C@H](CCCCN)NC(=O)[C@H](CCSC)NC(=O)[C@H](CCC(=O)O)NC(=O)[C@H](Cc1ccc(O)cc1)NC(=O)[C@H](CCC(=O)O)NC(=O)[C@H](CC(C)C)NC(=O)[C@H](CC(=O)O)NC(=O)[C@H](CC(C)C)NC(=O)[C@H](Cc1ccccc1)NC(=O)[C@@H](NC(=O)[C@@H](NC(=O)[C@H](CC(N)=O)NC(=O)[C@@H](NC(=O)[C@H](CCC(N)=O)NC(=O)[C@H](CC(=O)O)NC(=O)[C@H](CC(C)C)NC(=O)[C@@H](N)CO)[C@@H](C)CC)C(C)C)[C@@H](C)O)C(=O)N[C@@H](CCCCN)C(=O)N[C@@H](CCCCN)C(=O)N[C@@H](CC(C)C)C(=O)N[C@@H](CCC(=O)O)C(=O)N[C@@H](CCC(=O)O)C(=O)N[C@@H](CO)C(=O)N[C@@H](Cc1ccc(O)cc1)C(=O)N[C@H](C(=O)N[C@@H](CC(=O)O)C(=O)N[C@@H](CC(C)C)C(=O)N[C@@H](CCCCN)C(=O)N[C@@H](CCC(=O)O)C(=O)N[C@@H](CC(C)C)C(=O)O)[C@@H](C)CC [EK1]
SARS-CoV-2 S protein; IC50, SARS-CoV-2 S-mediated cell–cell fusion
  pIC50: 6.54 and 6.50
SARS-CoV S protein
  pIC50: 6.39
MERS-CoV PsV
  pIC50: 6.20
HCoV-229E PsV
  pIC50: 5.40
HCoV-NL63 PsV
  pIC50: 5.12
HCoV-229E S protein
  pIC50: 6.68
HCoV-OC43 S protein
  pIC50: 6.10
Live HCoV-OC43
  pIC50: 5.81
Live SARS-CoV-2
  pIC50: 5.61
Live MERS-CoV
  pIC50: 6.10
Live HCoV-229E
  pIC50: 5.36
WIV1 PsV
  pIC50: 5.27
SARS-CoV-2 PsV
  pIC50: 5.62
SARS-CoV PsV
  pIC50: 5.49
Live HCoV-NL63
  pIC50: 5.43
Rs3367 PsV
  pIC50: 5.22
MERS-CoV S protein
  pIC50: 6.62
HCoV-NL63 S protein
  pIC50: 6.12
HCoV-OC43 PsV
  pIC50: 5.85

## LKVLLYEEFKLLESLIMEILEYQKDSDIKENAEDTK [EK1-scrambled, reference compound]
SARS-CoV-2 S protein
  Inhibitory activity on SARS-CoV-2 S-mediated cell–cell fusion: no inhibitory activity
SARS-CoV S protein
  Inhibitory activity on SARS-CoV S-mediated cell–cell fusion: no inhibitory activity
Rs3367 S protein
  Inhibitory activity on Rs3367 S-mediated cell–cell fusion: no inhibitory activity
HCoV-229E S protein
  Inhibitory activity on HCoV-229E S-mediated cell–cell fusion: no inhibitory activity
HCoV-OC43 S protein
  Inhibitory activity on HCoV-OC43 S-mediated cell–cell fusion: no inhibitory activity
SHC014 S protein
  Inhibitory activity on SHC014 S-mediated cell–cell fusion: no inhibitory activity
MERS-CoV S protein
  Inhibitory activity on MERS-CoV S-mediated cell–cell fusion: no inhibitory activity
HCoV-NL63 S protein
  Inhibitory activity on HCoV-NL63 S-mediated cell–cell fusion: no inhibitory activity
WIV1 S protein
  Inhibitory activity on WIV1 S-mediated cell–cell fusion: no inhibitory activity
